Ends that are not written are not given here.
What was measured:
[1] = test system: rd10 and rd10/Serpinf1−/− mice; assay: BAX and BCL2 immunofluorescence of retinal sections after peptide eye drops; format: in vivo, mouse; details: eye drops 1 mg/ml, vs vehicle, five retinas per group
Procedure: Fig. 3: Eyedrops of 17-mer and H105A peptides decreased the BAX/BCL2 ratio in photoreceptors of rd10 and rd10/Serpinf1−/− mice (A and B) Immunostaining of retinas. Representative fluorescent micrographs of retinas from rd10 (A) and rd10/Serpinf1^−/− (B) mice treated with 17-mer or H105A peptides at 1 mg/ml via eye drops, along with vehicle-treated controls. Immunostaining was performed with antibodies against BAX or BCL2 (green), and DAPI (blue). Histograms show quantification of immunofluorescence intensity for BAX and BCL2 markers. […] Each individual data point represents the average of one retina, with statistical significance determined by unpaired t-test (***p < 0.0001, ****p < 0.00001). Scale bar = 40 μm.
Both eyes were oriented before enucleation to allow sectioning along the dorsal/ventral axis. Enucleated eyes from rd10 and rd10 × Serpinf1^−/− mice were incised in the cornea and fixed in 2.5% glutaraldehyde for 20 min and then in 10% neutral buffered formalin at 4°C for at least 48 h, followed by paraffin embedding, sectioning, and staining with either H&E or immunofluorescence procedures, as previously described ([28]). For fluorescence microscopy, antibodies, and 0.1 μg/ml DAPI were used to immunostain and nuclei counterstain the sections, respectively. Antibodies used in the study are in Table S3. Images were acquired using a ZEIS 700 confocal microscope. Fluorescence intensity was quantified using ImageJ as previously described ([14], [26]).

[2] = test system: rd10 and rd10/Serpinf1−/− mice; assay: Electroretinography (ERG) a-wave and b-wave after peptide eye drops; format: in vivo, mouse; details: for ERG a- and b-wave responses relative to vehicle-treated eyes: dark-adapted rd10 and rd10/Serpinf1−/− mice at P21, daily eye drops, n = 8
Description: Fig. 5: Effect of daily eyedrops of PEDF peptides on ERG a-wave and b-wave retinal function (A and B) Representative ERG waveforms for rd10 (A) and rd10/Serpinf1^−/− (B) mice at P21 in response to a light flash (1 cd.s/m^2). Amplitude (y-axis) is plotted against time in milliseconds (ms, x-axis). Treatments are indicated to the right of each plot and are color coded, with control wild type C57Bl/6J mice without peptide treatment shown in blue. A-wave and b-wave are indicated by arrows. (C and D) Photoreceptor a-wave amplitudes. Averages of photoreceptor a-wave amplitudes for rd10 (C) and rd10/Serpinf1^−/− (D) mice as a function of light intensity (cd/s.m^2, x-axis). Responses of animals treated with 17-mer are shown in green, H105A in black, and vehicle (HBSS) in red. Wildtype responses are shown in blue. (E and F) Bipolar cell b-wave amplitudes. Averages of bipolar cell b-wave amplitudes for rd10 (E) and rd10/Serpinf1^−/− (F) mice as a function of light intensity (cd/s.m^2, x-axis), with treatments indicated as in panels (C) and (D). The number of mice evaluated for the data shown in Panels C-F were n = 8 for each rd10, rd10/Serpinf1^−/− and wild type. Each data point represents the average ± SD of each genotype, analyzed by unpaired t-test. Statistical significance between H105A and vehicle is indicated by ##p < 0.01, ###p < 0.001, ####p < 0.0001, and between H105A and 17-mer by **p < 0.01, ***p < 0.001, ****p < 0.0001.
Electroretinogram (ERG) for rd10 and rd10/Serpinf1^−/− mice were recorded in both eyes of each animal using an Espion E2 system with ColorDome (Diagnosys LLC) with a heated surface and mice were dark-adapted overnight as previously described ([29]). Mice were placed on the heated surface and electrodes were placed in the mouth and a subdermal platinum needle electrode was placed in the back of the mouse to serve as ground. Responses were elicited with increasing light impulses with intensity from 0.0001 to 10 cd-seconds per meter squared (cd.s/m^2). Amplitudes for a-wave were measured from stimulus to the trough of the a-wave and b-wave amplitudes were measured from a-wave to b-wave trough or peak. The values from the a and b waves for both eyes were exported to Microsoft Excel to obtained amplitude values for each mouse.
Figure S2. Effects of extending the timeline or administering eye drops of 17-mer[H105A] peptide every other day in rd10 mic e.
Eye drops of H105A peptide solution were administered to r d1 0 mice either daily (Fig. S2A) or every other day (Fi g. S 2D). A total of 5 µl of a solution containing H105A peptide at 1 mg/ml in HBSS were applied as eye drops. The vehicle HBSS was added as eye drops in the contralateral eyes. When eye […]
intensity light at P25 (Fig. S2C). When eye drops of H105A were added every other day, a rescue in the ONL thickness in r d10 mice compared to vehicle was also observed (Fi g. S 2E), with an improvement in a- […]
efficacy of peptide H105A eye drops either daily or every other day in an extended timeline to stabilize photoreceptor morphology and light response function loss in r d10 mice, however, these were less efficacious than daily H105A peptide eye drops. […]
(C) ERG of r d1 0 mice at P25 and treated as in Fi g. […] For ERG data shown, the number of mice evaluated were n =5 for rd10 and each data point corresponds to the average ± SD of each genotype by unpaired t-test. *p < 0.05, **p < 0.01, * ** p < 0 .001 , ****p < 0.0001. […]

Row | Sequence | BAX level in photoreceptors (immunofluorescence) [1] | BCL2 level in photoreceptors (immunofluorescence) [1] | ERG a- and b-wave responses relative to vehicle-treated eyes [2] | ERG a-wave ([2]; rd10 mice, eye drops every other day P15 until P23, ERG at P25, n = 5)
1 | QRTESIIHRALYYDLIS [17-mer] | significantly decreased | increased | protected visual function | –
2 | QRTESIIARALYYDLIS [H105A] | significantly decreased | increased | protected visual function | improvement
